# Results reported in patent US6979686B1, “Substituted pyrazoles as p38 kinase inhibitors” (Pharmacia Corporation, priority 2001, dated 2005).
# Counter-ions that a name gives are not always drawn. Like-named read-outs stand apart in the source and are kept apart here.
# Key:
# [1] = test system: collagen-induced arthritis, DBA/1 male mice; assay: Collagen-induced arthritis in mice; assay type: in vivo, mouse; settings: oral gavage b.i.d., day 20 to day 56
# Description: Induction and Assessment of Collagen-induced Arthritis in Mice:
# Arthritis was induced in mice according to the procedure set forth in J. M. Stuart, Collagen Autoimmune Arthritis, Annual Rev. Immunol. 2:199 (1984), which is incorporated herein by reference. Specifically, arthritis was induced in 8-12 week old DBA/1 male mice by injection of 50 μg of chick type II collagen (CII) (provided by Dr. Marie Griffiths, Univ. of Utah, Salt Lake City, Utah) in complete Freund's adjuvant (Sigma) on day 0 at the base of the tail. Injection volume was 100 μl. Animals were boosted on day 21 with 50 μg of CII in incomplete Freund's adjuvant (100 μl volume). Animals were evaluated several times each week for signs of arthritis. Any animal with paw redness or swelling was counted as arthritic. Scoring of arthritic paws was conducted in accordance with the procedure set forth in Wooley et al., Genetic Control of Type II Collagen Induced Arthritis in Mice: Factors Influencing Disease Suspectibility and Evidence for Multiple MHC Associated Gene Control., Trans. Proc., 15:180 (1983). Scoring of severity was carried out using a score of 1-3 for each paw (maximal score of 12/mouse). Animals displaying any redness or swelling of digits or the paw were scored as 1. Gross swelling of the whole paw or deformity was scored as 2. Ankylosis of joints was scored as 3. Animals were evaluated for 8 weeks. 8-10 animals per group were used.
# Preparation and Administration of Compounds:
# The compounds tested on mice having collagen-induced arthritis were prepared as a suspension in 0.5% methylcelluose (Sigma, St. Louis, Mo.), 0.025% Tween 20 (Sigma). The compound suspensions were administered by oral gavage in a volume of 0.1 ml b.i.d. Administration began on day 20 post collagen injection and continued daily until final evaluation on day 56. Scoring of arthritic paws was conducted as set forth above.
# [2] = molecular target: T1, human GST-p38 kinase alpha (Homo sapiens, UniProt Q16539); assay: p38 kinase in vitro assay, second format, phosphorylation of EGFRP with 33P-ATP; assay type: biochemical
# T1 construct: made in house; host or cells: E. coli DH10B
# T1 sequence (Q16539 whole entry): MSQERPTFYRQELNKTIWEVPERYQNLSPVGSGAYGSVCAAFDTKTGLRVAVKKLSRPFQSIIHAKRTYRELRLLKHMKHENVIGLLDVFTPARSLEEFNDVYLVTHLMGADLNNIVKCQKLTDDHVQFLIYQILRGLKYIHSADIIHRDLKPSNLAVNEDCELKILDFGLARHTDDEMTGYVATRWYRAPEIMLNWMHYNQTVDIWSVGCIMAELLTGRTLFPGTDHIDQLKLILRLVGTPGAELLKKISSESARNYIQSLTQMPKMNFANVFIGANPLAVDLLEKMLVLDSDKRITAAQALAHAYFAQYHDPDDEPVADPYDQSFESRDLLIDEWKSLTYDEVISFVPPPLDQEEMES
# Description: The ability of compounds to inhibit human p38 kinase alpha was evaluated using two in vitro assay methods. In the first method, activated human p38 kinase alpha phosphorylates a biotinylated substrate, PHAS-I (phosphorylated heat and acid stable protein-insulin inducible), in the presence of gamma ^32P-ATP (^32P-ATP). PHAS-I was biotinylated prior to the assay and provides a means of capturing the substrate which is phosphorylated during the assay. p38 Kinase was activated by MKK6. Compounds were tested in 10 fold serial dilutions over the range of 100 μM to 0.001 μM using 1% DMSO. Each concentration of inhibitor was tested in triplicate.
# A second assay format was also employed that is based on p38 kinase alpha induced phosphorylation of EGFRP (epidermal growth factor receptor peptide, a 21 mer) in the presence of ^33P-ATP. Compounds were tested in 10 fold serial dilutions over the range of 100 μM to 0.001 μM in 10% DMSO. Each concentration of inhibitor was tested in triplicate. Compounds were evaluated in 50 μl reaction volumes in the presence of 25 mM Hepes pH 7.5, 10 mM magnesium acetate, 4% glycerol, 0.4% bovine serum albumin, 0.4 mM DTT, 50 μM unlabeled ATP, 25 μg EGFRP (200 μM), and 0.05 μCi gamma ^33P-ATP. Reactions were initiated by addition of 0.09 μg of activated, purified human GST-p38 kinase alpha. Activation was carried out using GST-MKK6 (5:1,p38:MKK6) for one hour at 30° C. in the presence of 50 μM ATP. Following incubation for 60 minutes at room temperature, the reaction was stopped by addition of 150 μl of AG 1X8 resin in 900 mM sodium formate buffer, pH 3.0 (1 volume resin to 2 volumes buffer). The mixture was mixed three times with pipetting and the resin was allowed to settle. A total of 50 μl of clarified solution head volume was transferred from the reaction wells to Microlite-2 plates. 150 μl of Microscint 40 was then added to each well of the Microlite plate, and the plate was sealed, mixed, and counted.
# [3] = test system: TNF alpha, BALB/c mice injected with LPS; assay: Mouse model of LPS-induced TNF alpha production; assay type: in vivo; settings: Table 6; mouse LPS, head '8 h', dose 30, oral gavage
# In short: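 Female BALB/c mice aged 10–12 weeks received 100 ng LPS i.v. and were bled 1 h later, with serum TNF measured by ELISA. Compound was given by oral gavage in mg/kg at the stated hours before LPS. Values are % inhibition against vehicle-treated LPS mice.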
# [4] = Table 10, 10% DMSO, @ 1.0 hour, read-out: p38α Kinase Assay IC50
structure (smiles),measurement,setting,value
"Fc1ccc(-c2[nH]nc(N3CCNCC3)c2-c2ccncc2)cc1 [Example A-172, 1-[5-(4-fluorophenyl)-4-(4-pyridinyl)-1H-pyrazol-3-yl]piperazine trihydrochloride]",% Inhibition of Arthritis,[1]; 100 mpk,49.3 @ 100 mpk %
"O[C@H]1CC[C@H](Nc2cc(-c3c[nH]nc3-c3ccc(F)cc3)ccn2)CC1 [Example A-386, trans-4-[[4-[3-(4-fluorophenyl)-1H-pyrazol-4-yl]-2-pyridinyl]amino]cyclohexanol]",IC50,"[2]; Table 9, 10% DMSO, read-out: p38α Kinase Assay IC50",16 nM
"Fc1ccc(-c2[nH]nc(C3CC3)c2-c2ccncc2)cc1 [Example A-189, 4-[3-cyclopropyl-5-(4-fluorophenyl)-1H-pyrazol-4-yl]pyridine]",% Inhibition of Arthritis,[1]; 30 mpk,51.6 @ 30 mpk %
"Fc1ccc(-c2[nH]ncc2-c2ccnc(NCCn3ccnc3)c2)cc1 [Example A-268, 4-[3-(4-fluorophenyl)-1H-pyrazol-4-yl]-N-[2-(1H-imidazol-1-yl)ethyl]-2-pyridinamine]",IC50,"[2]; Table 6, EGFRP assay procedure, read-out: p38^2 (p38α in vitro assay, EGFRP assay procedure) IC50",< 10 nM
O=C(C(=C1SCS1)c1ccncc1)c1ccc(I)cc1 [Example A-401],IC50,[2]; [4],21200 nM
"OCCn1cc(-c2ccncc2)c(-c2ccc(F)cc2)n1 [Example A-210, 3-(4-fluorophenyl)-4-(4-pyridinyl)-1H-pyrazole-1-ethanol]",mLPS 8 h percent inhibition,[3],85%
same,% Inhibition of Arthritis,[1]; 15 mpk,58.5 @ 15 mpk %
"COc1ccc(-c2n[nH]c(N3CCN(C)CC3)c2-c2ccncc2)cc1 [Example A-415, 1-(4-(4-methoxyphenyl)-4-(4-pyridinyl)-1H-pyrazol-3-yl]-4-methylpiperazine]",IC50,[2]; [4],510 nM
